# Reference: patent US8058263B2, “Substituted 2-phenyl-pyridine derivatives” (Actelion Pharmaceuticals Ltd, priority 2008, dated 2011)
# Target: T1, human P2Y12 receptor (Homo sapiens, UniProt Q9H244)
# T1 construct: expressed in transfected cells; host or cells: Chinese Hamster Ovary (CHO) cells
# Experiment: P2Y12 receptor binding assay
# Settings: CHO cells with recombinant expression of the human P2Y12 receptor; tritium-labeled 2-methyl-S-ADP; 2 hours at RT
# Experimental: P2Y12 Receptor Binding Assay
# Chinese Hamster Ovary (CHO) cells with recombinant expression of the human P2Y12 receptor were cultured in 24 well cell-culture plates. Cells were washed three times with binding buffer (50 mM Tris pH 7.4, 100 mM NaCl, 1 mM EDTA, 0.5% BSA). The cells were then incubated with 0.5 mL per well binding buffer containing tritium-labeled 2-methyl-thio-adenosine 5′-diphosphate (2-methyl-S-ADP) (between 100,000 and 300,000 dpm per well) and various concentrations of test compounds. After incubation at RT for 2 hours, cells were washed three times with binding buffer. Then, cells were solubilized by addition of 0.5 mL solubilization buffer (SDS, NaOH, EDTA). The content of each well was then transferred into beta-counter vials and 2.0 ml of Ultima Gold Scintillation liquid was added.
# T1 sequence (Q9H244 whole entry): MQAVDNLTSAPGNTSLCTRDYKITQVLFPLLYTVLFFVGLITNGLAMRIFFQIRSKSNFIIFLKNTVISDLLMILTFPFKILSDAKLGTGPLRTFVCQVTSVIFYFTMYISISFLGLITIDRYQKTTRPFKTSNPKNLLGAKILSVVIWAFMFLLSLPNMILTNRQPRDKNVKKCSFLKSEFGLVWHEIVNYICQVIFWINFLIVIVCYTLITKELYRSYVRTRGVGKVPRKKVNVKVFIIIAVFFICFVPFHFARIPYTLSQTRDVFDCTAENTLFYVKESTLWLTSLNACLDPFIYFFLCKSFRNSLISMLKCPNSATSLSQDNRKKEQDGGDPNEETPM
row,Compound,IC50 [nM]
1,"CCCCOC(=O)N1CCN(C(=O)[C@H](CP(=O)(OCOC(C)=O)OCOC(C)=O)NC(=O)c2cc(N3CC[C@H](OC)C3)cc(-c3ccccc3)n2)CC1 [Example 39, 4-((R)-3-(Bis-acetoxymethoxy-phosphoryl)-2-{[4-((S)-3-methoxy-pyrrolidin-1-yl)-6-phenyl-pyridine-2-carbonyl]-amino}-propionyl)-piperazine-1-carboxylic acid butyl ester]",3
2,"CCCCOC(=O)N1CCN(C(=O)[C@H](CP(=O)(O)O)NC(=O)c2cc([C@H]3C[C@@H]3CO)cc(-c3ccccc3)n2)CC1 [Example 20, 4-((R)-2-{[4-((1S,2S)-2-hydroxymethyl-cyclopropyl)-6-phenyl-pyridine-2-carbonyl]-amino}-3-phosphono-propionyl)-piperazine-1-carboxylic acid butyl ester]",5
3,"CCCCOC(=O)N1CCN(C(=O)[C@@H](CCCP(=O)(O)O)NC(=O)c2cc(N3CC[C@H](OC)C3)cc(-c3ccccc3)n2)CC1 [Example 14, 4-((R)-2-{[4-((S)-3-methoxy-pyrrolidin-1-yl)-6-phenyl-pyridine-2-carbonyl]-amino}-5-phosphono-pentanoyl)-piperazine-1-carboxylic acid butyl ester]",30
4,"CCCCOC(=O)N1CCN(C(=O)C(NC(=O)c2cc(N3CC[C@H](OC)C3)cc(-c3ccccc3)n2)P(=O)(O)O)CC1 (stereo partly drawn) [Example 12, 4-(-2-{[4-((S)-3-methoxy-pyrrolidin-1-yl)-6-phenyl-pyridine-2-carbonyl]-amino}-2-phosphono-acetyl)-piperazine-1-carboxylic acid butyl ester]",186
5,"CCCCOC(=O)N1CCN(C(=O)[C@H](CP(=O)(O)O)NC(=O)c2cc(-c3ccccc3)cc(-c3ccc(F)cc3)n2)CC1 [Example 17, 4-((R)-2-{[6-(4-fluoro-phenyl)-4-phenyl-pyridine-2-carbonyl]-amino}-3-phosphono-propionyl)-piperazine-1-carboxylic acid butyl ester]",19

# More lines, in order of falling IC50, values ahead:
row,IC50 [nM],Compound
1,4,"CCCCOC(=O)N1CCN(C(=O)[C@H](CP(=O)(O)O)NC(=O)c2cc(NC3CC3)cc(-c3ccccc3)n2)CC1 [Example 31, 4-{(R)-2-[(4-cyclopropylamino-6-phenyl-pyridine-2-carbonyl)-amino]-3-phosphono-propionyl}-piperazine-1-carboxylic acid butyl ester]"
2,2,"CCCCOC(=O)N1CCN(C(=O)[C@H](CP(=O)(O)O)NC(=O)c2cc(OCCOC)cc(-c3ccccc3)n2)CC1 [Example 36, 4-((R)-2-{[4-(2-methoxy-ethoxy)-6-phenyl-pyridine-2-carbonyl]-amino}-3-phosphono-propionyl)-piperazine-1-carboxylic acid butyl ester]"
3,1,"CCOC(=O)N1CCN(C(=O)[C@H](Cc2ccc(P(=O)(O)O)cc2)NC(=O)c2cc(N3CC[C@H](OC)C3)cc(-c3ccccc3)n2)CC1 [Example 24, 4-[(S)-2-{[4-((S)-3-methoxy-pyrrolidin-1-yl)-6-phenyl-pyridine-2-carbonyl]-amino}-3-(4-phosphono-phenyl)-propionyl]-piperazine-1-carboxylic acid ethyl ester]"
